Publication PMC10870114 (Clinical Cancer Research, 2023)

Assay: Plasma pharmacokinetics on fraction day
Assay type: in vivo, human
Details: plasma, patients given peposertib

**Q.** With `Oc1ccc(C(O)c2cc(-c3ncnc4cc(N5CCOCC5)ccc34)c(F)cc2Cl)nn1` (centres unmarked) [M467] as the compound, how does the “Average exposure proportion compared with peposertib, AUC” value read?
**A.** Its value is less than 25%.

**Q.** And the “Average exposure proportion compared with peposertib, Cmax” value?
**A.** Its value is less than 16%.
